The text below walks through data of patent publication US10052322B2 (SIGNAL PHARMACEUTICALS, LLC, priority 2013, dated 2018).

In brackets after ≈: the same amount, converted by molar mass. Entries after “also recorded” stand apart in the source; their conditions may differ. Where two headings read alike, the source gives them in different places.

What all share (type): physicochemical
The nature of data set [1]: Hygroscopicity by dynamic vapor sorption (DVS). The method, then: Hygroscopicity was determined on a Surface Measurement Systems DVS. Typically a sample size of 2-10 mg was loaded into the DVS instrument sample pan and the sample was analyzed on a DVS automated sorption analyzer at room temperature. […] The relative humidity was then decreased in a similar manner to accomplish a full adsorption/desorption cycle. For selected hydrated forms, the analysis started at 50% RH and increased to 90% RH at 10% RH step. The relative humidity was then decreased in a similar manner to 0% RH followed by increasing to 50% RH.

Data set [2] can be described thus: Solubility of Form A in selected aqueous and organic solvents (HPLC). Particulars: thermodynamic from solid, read-out: Solubility (mg/mL) (room temperature). The method, then: Solubility of Form A in selected aqueous and organic solvents was determined by mixing solid with solvents at room temperature. […] Solubility of Form B and Form C in water was also determined by the same HPLC method.

A short description of data set [3]: Form transfer / competitive slurry experiments. The protocol:
The resulting mixture was agitated for at least 24 hours at room temperature and 50° C. separately. Upon reaching equilibrium, the saturated supernatant solution was removed and allowed to evaporate slowly in an open vial under nitrogen at room temperature and 50° C., respectively. The solid resulting from the equilibration was filtered and air-dried before analysis.

Data set [4] is described as follows: Evaporation experiments (XRPD). Particulars: evaporation at 50° C. The method, then: (§1) All of the solid samples generated in the polymorph screen were analyzed by XRPD. XRPD analysis was conducted on a Thermo ARL X'TRA X-ray powder diffractometer using Cu Kα radiation at 1.54 Å. The instrument was equipped with a fine focus X-ray tube. The voltage and amperage of the X-ray generator were set at 45 kV and 40 mA, respectively. The divergence slits were set at 4 mm and 2 mm and the measuring slits were set at 0.5 mm and 0.2 mm. Diffracted radiation was measured using a Peltier-cooled Si (Li) solid-state detector. A theta-two theta continuous scan at 2.40/min (0.5 sec/0.02° step) from 1.5° to 40° 2θ was used. A sintered alumina standard was used to check the peak positions. […] The resulting mixture was agitated for at least 24 hours at room temperature and 50° C. separately. Upon reaching equilibrium, the saturated supernatant solution was removed and allowed to evaporate slowly in an open vial under nitrogen at room temperature and 50° C., respectively. The solid resulting from the equilibration was filtered and air-dried before analysis.

Data set [5] can be described thus: Equilibration / slurry experiments of Form A (XRPD). The method, then:
as §1

Where [6] appears, read: humidity from about 0% to about 50% RH at about 25° C.
Where [7] appears, read: humidity from about 0% to about 95% RH at about 25° C.
[8] abbreviates: humidity increased from about 0% to about 80% RH.
The mark [9] stands for this setting: humidity increased from about 80% to about 90% RH.
[10] abbreviates: slurry in MeOH/water (1:1), seed None, 1 week.

In the case of `CCN1C(=O)CNc2ncc(-c3ccc(-c4nnc[nH]4)nc3C)nc21` [Form A, 1-ethyl-7-(2-methyl-6-(1H-1,2,4-triazol-3-yl)pyridin-3-yl)-3,4-dihydropyrazino[2,3-b]pyrazin-2(1H)-one], the hygroscopicity result in data set [1] (DVS, in words) was “non-hygroscopic; also recorded: not hygroscopic”. Besides, the “Moisture sorption (wt % at 90% RH)” value in data set [1] was 0.4 wt %. Also, the weight gain result in data set [1] (setting [6]) is given as “about 0.2 % w/w”; in data set [1] (setting [7]), “about 0.5 % w/w”. The mass gain result is listed as “less than 0.35 % w/w” in data set [1] (setting [8]) and “about 0.08 % w/w” in data set [1] (setting [9]). Moreover, the solubility at 24 h in data set [2] (0.1N HCl, simulated gastric fluid) was 7.1 mg/mL (≈ 21100 µM); in data set [2] (0.9% NaCl, saline or isotonic), 0.03 mg/mL (≈ 89.2 µM); in data set [2] (acetone, organic solvent or mixture), 0.46 mg/mL (≈ 1370 µM); in data set [2] (acetonitrile, organic solvent or mixture) it was 0.14 mg/mL (≈ 416 µM); in data set [2] (aqueous buffer, Acetate buffer pH 4.0) it was 0.06 mg/mL (≈ 178 µM); in data set [2] (aqueous buffer, Phosphate buffer pH 6.8), 0.05 mg/mL (≈ 149 µM). Further, the solubility at 24 h in data set [2] (ethanol, organic solvent or mixture) was 0.5 mg/mL (≈ 1490 µM); in data set [2] (ethyl acetate, organic solvent or mixture), 0.32 mg/mL (≈ 951 µM); in data set [2] (heptane, organic solvent or mixture), less than 0.005 mg/mL; in data set [2] (isopropanol, organic solvent or mixture), 0.28 mg/mL (≈ 832 µM); in data set [2] (methanol, organic solvent or mixture), 1.13 mg/mL (≈ 3360 µM); in data set [2] (tetrahydrofuran, organic solvent or mixture), 5.5 mg/mL (≈ 16400 µM). In data set [2] (Water, room temperature, 24 hours), the solubility at 24 h came out at 0.08 mg/mL (≈ 238 µM). Also, the solubility in data set [2] (organic solvent or mixture, Dimethyl Sulfoxide, estimated from visual observation of complete dissolution) was greater than 50 mg/mL. Also, the “XRPD Result” value was “Form A” in data set [3] (slurry in Acetonitrile, seed None, 2 weeks); “Form A” in data set [3] (slurry in EtOH/H2O (1:1), seed Form B, 1 week); “Form A” in data set [3] (slurry in EtOH/H2O (1:1), seed Form C, 1 week); “Form A” in data set [3] (slurry in Ethanol/Water (1:1), seed None, 2 weeks); “Form A” in data set [3] (slurry in H2O, seed Form B, 1 week); “Form A + C” in data set [3] (slurry in H2O, seed Form C, 7 weeks). Moreover, the “XRPD Result” value in data set [3] (slurry in H2O, seed None, 2 weeks) is on record as “Form A”; in data set [3] (slurry in MTBE, seed None, 2 weeks), “Form A”; in data set [3] (slurry in MeOH, seed Form B, 1 week), “Form A”; in data set [3] (slurry in MeOH, seed Form C, 1 week), “Form A”; in data set [3] (slurry in MeOH, seed None, 2 weeks), “Form A”; in data set [4] (Methanol), “Form A + B”. Also, in data set [4] (Tetrahydrofuran), the “XRPD Result” value is reported as “Amorphous, degraded”. Besides, the “XRPD Result 24 hours” value in data set [5] (equilibration at room temperature, 2-Propanol) is reported as “Form A”; in data set [5] (equilibration at room temperature, Acetone) it was “Form A”; in data set [5] (equilibration at room temperature, Acetonitrile), “Form A”; in data set [5] (equilibration at room temperature, Ethanol), “Form A”; in data set [5] (equilibration at room temperature, Ethanol/Water (1:1)) it was “Form A”; in data set [5] (equilibration at room temperature, Ethyl acetate) it was “Form A”. In addition, the “XRPD Result 24 hours” value in data set [5] (equilibration at room temperature, Heptane) is listed as “Form A”; in data set [5] (equilibration at room temperature, Methanol), “Form A”; in data set [5] (equilibration at room temperature, Methyl ethyl ketone) it was “Form A”; in data set [5] (equilibration at room temperature, Methyl t-butyl ether) it was “Form A”; in data set [5] (equilibration at room temperature, Methylene chloride) it was “Form A”; in data set [5] (equilibration at room temperature, Tetrahydrofuran), “Form A”. Further, the “XRPD Result 24 hours” value in data set [5] (equilibration at room temperature, Toluene) was “Form A”; in data set [5] (equilibration at room temperature, Water), “Form A”; in data set [5] (equilibration at room temperature, n-Butanol) it was “Form A”; in data set [5] (slurry at 50° C., 2-Propanol) it was “Form A”; in data set [5] (slurry at 50° C., Acetone) it was “Form A”; in data set [5] (slurry at 50° C., Acetonitrile), “Form A”. Besides, the “XRPD Result 24 hours” value in data set [5] (slurry at 50° C., Ethanol) was “Form A”; in data set [5] (slurry at 50° C., Ethanol/Water (1:1)) it was “Form A”; in data set [5] (slurry at 50° C., Ethyl acetate), “Form A”; in data set [5] (slurry at 50° C., Heptane) it was “Form A”; in data set [5] (slurry at 50° C., Methanol) it was “Form A”; in data set [5] (slurry at 50° C., Methyl ethyl ketone) it was “Form A”. In addition, the “XRPD Result 24 hours” value is “Form A” in data set [5] (slurry at 50° C., Tetrahydrofuran); “Form A” in data set [5] (slurry at 50° C., Toluene); “Form A” in data set [5] (slurry at 50° C., Water); “Form A” in data set [5] (slurry at 50° C., n-Butanol).

Take `CCN1C(=O)CNc2ncc(-c3ccc(-c4nnc[nH]4)nc3C)nc21` [Form B, 1-ethyl-7-(2-methyl-6-(1H-1,2,4-triazol-3-yl)pyridin-3-yl)-3,4-dihydropyrazino[2,3-b]pyrazin-2(1H)-one]: in data set [1] (listed as B), the “Moisture sorption (wt % at 90% RH)” value is given as 20.7 wt %. For the same molecule, the “XRPD Result” value in data set [3] (slurry in Acetonitrile, seed None, 3 days) is on record as “Form A”.

Regarding `CCN1C(=O)CNc2ncc(-c3ccc(-c4nnc[nH]4)nc3C)nc21` [Form C, 1-ethyl-7-(2-methyl-6-(1H-1,2,4-triazol-3-yl)pyridin-3-yl)-3,4-dihydropyrazino[2,3-b]pyrazin-2(1H)-one], in data set [1] (listed as C), the “Moisture sorption (wt % at 90% RH)” value came to 12.2 wt %. Moreover, the “XRPD Result” value in data set [3] (slurry in H2O, seed None, 1 week) is “Form C”; in data set [3] (setting [10]), “Form C”.

Turning to `CCN1C(=O)CNc2ncc(-c3ccc(-c4nnc[nH]4)nc3C)nc21` [Form E, 1-ethyl-7-(2-methyl-6-(1H-1,2,4-triazol-3-yl)pyridin-3-yl)-3,4-dihydropyrazino[2,3-b]pyrazin-2(1H)-one], in data set [1], the “Moisture sorption (wt % at 90% RH)” value came out at 5.9 wt %. Further, the weight gain entry in data set [1] (setting [6]) is on record as “about 2.3 % w/w”; in data set [1] (setting [7]) it was “about 5.8 % w/w”. Also, the mass gain entry is recorded as “less than 4 % w/w” in data set [1] (setting [8]) and “about 1.1 % w/w” in data set [1] (setting [9]). Besides, the “XRPD Result” value in data set [3] (slurry in Acetonitrile, seed None, 1 week) is listed as “Form A”; in data set [3] (setting [10]), “Form C”.
